One may read the IC50 as the concentration at which inhibition is half-maximal.

The target of one assay is Avi-tagged FL MALT-1 (Homo sapiens (Human), UniProt Q9UDY8). The assay is described as follows: MALT-1 Fluorogenic Peptide Cleavage Assay (MALT1 inhibition assay). The assay is classed as biochemical. The settings on record: Ac-LRSR-AMC peptide substrate, 30 min pre-incubation, 90 min reaction at room temperature. A digest of the protocol:
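Cleavage of Ac-LRSR-AMC, read as fluorescence at 342/441 nm after 90 min at room temperature, with substrate working stocks of 50 μM (Km) or 280 μM (10×Km). Enzyme, Avi-tagged full-length MALT-1 (40 nM stock), was first pre-incubated 30 min with compound in citrate/HEPES pH 6.89 buffer with TCEP, EDTA, CHAPS and 2% DMSO; IC50 fitted from normalised % inhibition.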

Assay [1] concerns NF-kB reporter in Jurkat cells. In words: NF-kB reporter assay in Jurkat cells stimulated with aCD3/aCD28/PMA. In kind it is cell-based. The note with it: Homo sapiens; Jurkat cells, 1 hr compound pre-incubation, aCD3/aCD28/PMA stimulation 4 hr, One-Glo readout; read-out: NF-kB Reporter Assay IC50. A digest of the protocol:
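Luminescence (One-Glo) from the NF-kB reporter yielded IC50 values. Stimulation lasted 4 h at 37° C with aCD3, aCD28 and PMA (final 5, 5 and 0.03 […]), after 1 h compound pre-exposure of 25,000 Jurkat cells per well in serum-free RPMI.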
In general terms: In a reporter assay the amount or activity of a reporter protein is the signal.

Chain of Avi-tagged FL MALT-1 (Q9UDY8 whole entry): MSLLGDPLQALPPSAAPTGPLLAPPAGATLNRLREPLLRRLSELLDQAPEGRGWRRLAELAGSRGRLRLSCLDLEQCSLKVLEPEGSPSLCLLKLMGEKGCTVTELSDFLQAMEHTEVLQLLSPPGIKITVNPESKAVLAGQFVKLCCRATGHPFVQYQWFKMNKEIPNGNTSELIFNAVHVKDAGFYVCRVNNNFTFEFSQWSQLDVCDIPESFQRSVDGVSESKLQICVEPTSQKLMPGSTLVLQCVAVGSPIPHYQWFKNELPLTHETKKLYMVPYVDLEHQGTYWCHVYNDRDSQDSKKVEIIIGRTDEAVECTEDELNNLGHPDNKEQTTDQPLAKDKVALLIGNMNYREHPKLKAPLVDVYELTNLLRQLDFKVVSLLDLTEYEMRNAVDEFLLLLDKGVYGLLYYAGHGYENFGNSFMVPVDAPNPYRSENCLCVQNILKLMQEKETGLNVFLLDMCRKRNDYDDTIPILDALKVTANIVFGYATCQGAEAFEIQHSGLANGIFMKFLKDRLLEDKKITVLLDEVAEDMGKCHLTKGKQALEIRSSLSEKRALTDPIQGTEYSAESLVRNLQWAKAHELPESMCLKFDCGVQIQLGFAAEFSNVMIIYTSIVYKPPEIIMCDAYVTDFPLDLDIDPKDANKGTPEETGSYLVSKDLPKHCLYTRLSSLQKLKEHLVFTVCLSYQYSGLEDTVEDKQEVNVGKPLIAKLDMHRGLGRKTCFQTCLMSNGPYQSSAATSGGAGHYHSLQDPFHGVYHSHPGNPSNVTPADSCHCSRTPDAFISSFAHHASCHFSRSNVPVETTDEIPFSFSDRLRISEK

For the molecule `COc1ccc2cnn(C)c2c1NS(=O)(=O)c1cnn(-c2cc(C3COC3)ccn2)c1` [Compound I-262, N-(6-methoxy-1-methyl-1H-indazol-7-yl)-1-(4-(oxetan-3-yl)pyridin-2-yl)-1H-pyrazole-4-sulfonamide], the IC50 was 400 to 1000 nM at Avi-tagged FL MALT-1 and below 400 nM in assay [1].

Turning to `COc1ccc2cnn(C)c2c1NS(=O)(=O)c1cnn(-c2cc(C3CCO3)ccn2)c1` (centres unmarked) [Compound I-263, N-(6-methoxy-1-methyl-1H-indazol-7-yl)-1-(4-(oxetan-2-yl)pyridin-2-yl)-1H-pyrazole-4-sulfonamide], the IC50 on Avi-tagged FL MALT-1 was 400 to 1000 nM; in assay [1] it was below 400 nM.

In the case of `Cn1ncc2cccc(NS(=O)(=O)c3cnn(-c4cc(C5COC5)ccn4)c3)c21` [Compound I-264, N-(1-methylindazol-7-yl)-1-[4-(oxetan-3-yl)pyridin-2-yl]pyrazole-4-sulfonamide], the figures for the IC50 (against Avi-tagged FL MALT-1; in assay [1]) were above 2500 nM and below 400 nM, respectively.

Turning to `Cn1ncc2cccc(NS(=O)(=O)c3cnn(-c4cc(C5CCO5)ccn4)c3)c21` (centres unmarked) [Compound I-265, N-(1-methylindazol-7-yl)-1-[4-(oxetan-2-yl)pyridin-2-yl]pyrazole-4-sulfonamide], the IC50 at Avi-tagged FL MALT-1 was above 2500 nM; in assay [1], below 400 nM.

For `COc1ccc2cnn(C)c2c1NS(=O)(=O)c1cnn(-c2cc(C(F)(F)F)n(C)n2)c1` [Compound I-266, N-(6-methoxy-1-methyl-1H-indazol-7-yl)-1′-methyl-5′-(trifluoromethyl)-1′H-[1,3′-bipyrazole]-4-sulfonamide], the half-inhibitory concentration (IC50) against Avi-tagged FL MALT-1 was at most 400 nM; in assay [1] it was below 400 nM.

Turning to `COC[C@](C)(O)c1ccnc(-n2cc(S(=O)(=O)Nc3cccc4cnn(C)c34)cn2)c1` [Compound I-267], the IC50 is above 2500 nM against Avi-tagged FL MALT-1 and below 400 nM in assay [1].

Turning to `COCC(F)(F)c1ccnc(-n2cc(S(=O)(=O)Nc3cccc4cnn(C)c34)cn2)c1` [Compound I-268], the half-inhibitory concentration (IC50) on Avi-tagged FL MALT-1 was above 2500 nM; in assay [1], below 400 nM.

As to `C[C@@H](O)c1ccnc(-n2cc(S(=O)(=O)Nc3cccc4cnn(C)c34)cn2)c1` [Compound I-269], the IC50 was above 2500 nM against Avi-tagged FL MALT-1 and below 400 nM in assay [1].

Regarding `C[C@H](O)c1ccnc(-n2cc(S(=O)(=O)Nc3cccc4cnn(C)c34)cn2)c1` [Compound I-270], the IC50 against Avi-tagged FL MALT-1 was above 2500 nM; in assay [1], below 400 nM.

Regarding `Cn1ncc2cccc(NS(=O)(=O)c3cnn(-c4cc([C@]5(O)C[C@@H](C)C5)ccn4)c3)c21` [Compound I-271, 1-(4-((1s,3s)-1-hydroxy-3-methylcyclobutyl)pyridin-2-yl)-N-(1-methyl-1H-indazol-7-yl)-1H-pyrazole-4-sulfonamide], the concentration for half-maximal inhibition (IC50) was above 2500 nM on Avi-tagged FL MALT-1 and below 400 nM in assay [1].

Turning to `CCc1ccc2cnn(C)c2c1NS(=O)(=O)c1cnn(-c2cc(C(C)(C)O)ccn2)c1` [Compound I-274, N-(6-ethyl-1-methyl-1H-indazol-7-yl)-1-(4-(2-hydroxypropan-2-yl)pyridin-2-yl)-1H-pyrazole-4-sulfonamide], the half-maximal inhibitory concentration (IC50) on Avi-tagged FL MALT-1 is at most 400 nM; in assay [1], below 400 nM.

With `COC[C@@](C)(O)c1ccnc(-n2cc(S(=O)(=O)Nc3cccc4cnn(C)c34)cn2)c1` [Compound I-275], the figures for the half-inhibitory concentration (IC50) (at Avi-tagged FL MALT-1; in assay [1]) were above 2500 nM and 1000 to 2500 nM, respectively.

`CCC(O)(CC)c1ccnc(-n2cc(S(=O)(=O)Nc3cccc4cnn(C)c34)cn2)c1` [Compound I-276]: the 50% inhibitory concentration (IC50) is above 2500 nM at Avi-tagged FL MALT-1 and below 400 nM in assay [1].

For the molecule `CC[C@@H](O)c1ccnc(-n2cc(S(=O)(=O)Nc3cccc4cnn(C)c34)cn2)c1` [Compound I-278, (R)-1-(4-(1-hydroxypropyl)pyridin-2-yl)-N-(1-methyl-1H-indazol-7-yl)-1H-pyrazole-4-sulfonamide], the IC50 at Avi-tagged FL MALT-1 is above 2500 nM; in assay [1], below 400 nM.

As to `CCC(O)(CC)c1ccnc(-n2cc(S(=O)(=O)Nc3c(OC)ccc4cnn(C)c34)cn2)c1` [Compound I-279, 1-[4-(3-hydroxypentan-3-yl)pyridin-2-yl]-N-(6-methoxy-1-methylindazol-7-yl)pyrazole-4-sulfonamide], the half-maximal inhibitory concentration (IC50) (against Avi-tagged FL MALT-1; in assay [1]) was 400 to 1000 nM throughout.

On to `Cn1ncc2cccc(NS(=O)(=O)c3cnn(-c4cc(N5CCOC5=O)ccn4)c3)c21` [Compound I-282, N-(1-methyl-1H-indazol-7-yl)-1-(4-(2-oxooxazolidin-3-yl)pyridin-2-yl)-1H-pyrazole-4-sulfonamide], for which the IC50 was above 2500 nM at Avi-tagged FL MALT-1 and below 400 nM in assay [1].

In the case of `Cn1ncc2cccc(NS(=O)(=O)c3cnn(-c4cc(N5CC(C)(C)OC5=O)ccn4)c3)c21` [Compound I-283], the results for the half-maximal inhibitory concentration (IC50) (against Avi-tagged FL MALT-1; in assay [1]) were above 2500 nM and below 400 nM, respectively.

Take `Cn1ncc2cccc(NS(=O)(=O)c3cnn(-c4cc(N5CCCC5=O)ccn4)c3)c21` [Compound I-284]: the IC50 against Avi-tagged FL MALT-1 is above 2500 nM; in assay [1], below 400 nM.

As to `Cn1ncc2cccc(NS(=O)(=O)c3cnn(-c4cc(N5CC(C)(C)NC5=O)ccn4)c3)c21` [Compound I-285, 1-(4-(4,4-Dimethyl-2-Oxoimidazolidin-1-yl)Pyridin-2-yl)-N-(1-Methyl-1H-Indazol-7-yl)-1H-Pyrazole-4-Sulfonamide], the half-maximal inhibitory concentration (IC50) against Avi-tagged FL MALT-1 was above 2500 nM; in assay [1] it was 400 to 1000 nM.

For `COc1ncc2cnn(C)c2c1NS(=O)(=O)c1cnn(-c2cc(C(F)(F)F)n(C)n2)c1` [Compound I-286, N-(6-methoxy-1-methyl-1H-pyrazolo[4,3-c]pyridin-7-yl)-1′-methyl-5′-(trifluoromethyl)-1′H-[1,3′-bipyrazole]-4-sulfonamide], the results for the IC50 (against Avi-tagged FL MALT-1; in assay [1]) were at most 400 nM and 400 to 1000 nM, respectively.

Take `CC(=O)N1CC(O)(c2ccnc(-n3cc(S(=O)(=O)Nc4cccc5cnn(C)c45)cn3)c2)C1` [Compound I-287]: the concentration for half-maximal inhibition (IC50) (at Avi-tagged FL MALT-1; in assay [1]) was above 2500 nM each time.

For `Cn1ncc2cccc(NS(=O)(=O)c3cnn(-c4cc([C@]5(O)C[C@H](C)C5)ccn4)c3)c21` [Compound I-288, 1-(4-((1r,3r)-1-hydroxy-3-methyl-cyclobutyl)pyridin-2-yl)-N-(1-methyl-1H-indazol-7-yl)-1H-pyrazole-4-sulfonamide], the half-inhibitory concentration (IC50) at Avi-tagged FL MALT-1 is above 2500 nM; in assay [1], below 400 nM.

For the molecule `COCC(F)(COC)c1ccnc(-n2cc(S(=O)(=O)Nc3cccc4cnn(C)c34)cn2)c1` [Compound I-289], the 50% inhibitory concentration (IC50) (at Avi-tagged FL MALT-1; in assay [1]) was above 2500 nM in each case.

Consider `CC[C@](C)(O)c1ccnc(-n2cc(S(=O)(=O)Nc3cccc4cnn(C)c34)cn2)c1` [Compound I-294], for which the IC50 at Avi-tagged FL MALT-1 is above 2500 nM; in assay [1] it was below 400 nM.

For the molecule `CC[C@@](C)(O)c1ccnc(-n2cc(S(=O)(=O)Nc3cccc4cnn(C)c34)cn2)c1` [Compound I-295], the IC50 at Avi-tagged FL MALT-1 was above 2500 nM; in assay [1], below 400 nM.

As to `CCC(CC)(OC)c1ccnc(-n2cc(S(=O)(=O)Nc3cccc4cnn(C)c34)cn2)c1` [Compound I-296], the figures for the 50% inhibitory concentration (IC50) (against Avi-tagged FL MALT-1; in assay [1]) were above 2500 nM and below 400 nM, respectively.

With `CCC(OC)c1ccnc(-n2cc(S(=O)(=O)Nc3cccc4cnn(C)c34)cn2)c1` (centres unmarked) [Compound I-297, 1-{4-[1-methoxypropyl]pyridin-2-yl}-N-(1-methylindazol-7-yl)pyrazole-4-sulfonamide], the values for the IC50 (at Avi-tagged FL MALT-1; in assay [1]) were above 2500 nM and below 400 nM, respectively.

On to `CC[C@@H](OC)c1ccnc(-n2cc(S(=O)(=O)Nc3cccc4cnn(C)c34)cn2)c1` [Compound I-298], for which the IC50 on Avi-tagged FL MALT-1 was above 2500 nM; in assay [1], below 400 nM.

Consider `CCC(CC)(OC)c1ccnc(-n2cc(S(=O)(=O)Nc3c(OC)ccc4cnn(C)c34)cn2)c1` [Compound I-299, N-(6-Methoxy-1-Methyl-1H-Indazol-7-yl)-1-(4-(3-Methoxypentan-3-yl)Pyridin-2-yl)-1H-Pyrazole-4-Sulfonamide], for which the concentration for half-maximal inhibition (IC50) against Avi-tagged FL MALT-1 was at most 400 nM; in assay [1] it was 400 to 1000 nM.

For the molecule `COC[C@](C)(OC)c1ccnc(-n2cc(S(=O)(=O)Nc3cccc4cnn(C)c34)cn2)c1` [Compound I-300], the IC50 against Avi-tagged FL MALT-1 was above 2500 nM; in assay [1], below 400 nM.

As to `COC[C@@](C)(OC)c1ccnc(-n2cc(S(=O)(=O)Nc3cccc4cnn(C)c34)cn2)c1` [Compound I-301], the IC50 is above 2500 nM against Avi-tagged FL MALT-1 and below 400 nM in assay [1].

On to `C[C@@H]1COC(=O)N1c1ccnc(-n2cc(S(=O)(=O)Nc3cccc4cnn(C)c34)cn2)c1` [Compound I-302], for which the IC50 against Avi-tagged FL MALT-1 was above 2500 nM; in assay [1], below 400 nM.

Turning to `C[C@H]1COC(=O)N1c1ccnc(-n2cc(S(=O)(=O)Nc3cccc4cnn(C)c34)cn2)c1` [Compound I-303], the results for the IC50 (against Avi-tagged FL MALT-1; in assay [1]) were above 2500 nM and below 400 nM, respectively.

As to `COC[C@@H](O)c1ccnc(-n2cc(S(=O)(=O)Nc3cccc4cnn(C)c34)cn2)c1` [Compound I-304], the figures for the concentration for half-maximal inhibition (IC50) (against Avi-tagged FL MALT-1; in assay [1]) were above 2500 nM and 400 to 1000 nM, respectively.

For the molecule `COC[C@H](O)c1ccnc(-n2cc(S(=O)(=O)Nc3cccc4cnn(C)c34)cn2)c1` [Compound I-305], the IC50 against Avi-tagged FL MALT-1 was above 2500 nM; in assay [1] it was 400 to 1000 nM.

On to `CO[C@]1(c2ccnc(-n3cc(S(=O)(=O)Nc4cccc5cnn(C)c45)cn3)c2)CCOC1` [Compound I-306], for which the IC50 against Avi-tagged FL MALT-1 is above 2500 nM; in assay [1], below 400 nM.

With `Cn1ncc2cccc(NS(=O)(=O)c3cnn(-c4cc(C(C)(C)CO)ccn4)c3)c21` [Compound I-307, 1-(4-(1-hydroxy-2-methylpropan-2-yl)pyridin-2-yl)-N-(1-methyl-1H-indazol-7-yl)-1H-pyrazole-4-sulfonamide], the half-maximal inhibitory concentration (IC50) against Avi-tagged FL MALT-1 is above 2500 nM; in assay [1] it was below 400 nM.

Source of the values: US20240150321A1, “PYRAZOLYLSULFONAMIDE COMPOUNDS AND THEIR USE IN THERAPY” (HOTSPOT THERAPEUTICS, INC., priority 2022, published 2024).
